Experimental data from ChEMBL document CHEMBL5346927, “Discovery of a novel 1H-pyrazole- [3,4-b] pyridine-based lysine demethylase 5B inhibitor with potential anti-prostate cancer activity that perturbs the phosphoinositide 3-kinase/AKT pathway” (Eur J Med Chem, 2023).
Active and inactive are the calls of the source. The rule behind the calls is not given here.

Assays:
[1] = target: T1, Lysine-specific demethylase 5B (Homo sapiens, UniProt Q9UGL1); test: Inhibition of KDM5B (unknown origin) at 10 uM relative to control
[2] = test system: MGC-803; test: Antitumor activity against human MGC-803 cells assessed as inhibition of cell proliferation incubated for 72 hrs by MTT assay; assay type: functional, cell-based; conditions: MGC-803, 72 h
[3] = test system: LNCaP; test: Antiproliferative activity against human LNCaP cells assessed as inhibition of cell proliferation incubated for 72 hrs by MTT assay; assay type: functional, cell-based
[4] = test system: DU-145; test: Antiproliferative activity against human DU-145 cells assessed as inhibition of cell proliferation incubated for 72 hrs by MTT assay; assay type: functional, cell-based; conditions: DU-145, 72 h
[5] = MRT (0 to t) in ICR mouse at 25 mg/kg, IG measured at 0.083 to 24 hrs by LC-MS analysis; assay type: ADME, organism-based; conditions: in vivo, po, time 0.083-24 hrs
[6] = Half-life in ICR mouse at 25 mg/kg, IG measured at 0.083 to 24 hrs by LC-MS analysis; assay type: ADME, organism-based; conditions: in vivo, po, time 0.083-24 hrs
[7] = target: T1, Lysine-specific demethylase 5B; test: Inhibition of KDM5B in human PC-3 cells assessed as H3K4me1 accumulation incubated for 72 hrs by Western blot analysis; assay type: cell-based
[8] = target: T1, Lysine-specific demethylase 5B; test: Inhibition of KDM5B in human PC-3 cells assessed as H3K4me2 accumulation incubated for 72 hrs by Western blot analysis; assay type: cell-based
[9] = target: T1, Lysine-specific demethylase 5B; test: Inhibition of KDM5B in human PC-3 cells assessed as H3K4me3 accumulation incubated for 72 hrs by Western blot analysis; assay type: cell-based
[10] = test system: PC-3; test: Inhibition of colony formation in human PC-3 cells incubated for 72 hrs by crystal violet staining based microplate reader analysis; assay type: functional, cell-based; conditions: dose 1.25-5 µM
[11] = test system: PC-3; test: Inhibition of cell migration in human PC-3 cells at 5 to 10 uM by wound scratch assay; assay type: functional, cell-based; conditions: dose 5-10 µM, time <= 24.0 hrs, TDE = time-dependent effect
[12] = test system: LNCaP; test: Inhibition of colony formation in human LNCaP cells incubated for 72 hrs by crystal violet staining based microplate reader analysis; assay type: functional, cell-based
[13] = test system: PC-3; test: Induction of cell cycle arrest in human PC-3 cells assessed as increase in G2/M phase cell ratio at 5 uM incubated for 24 hrs by PI/RNase A staining based flow cytometric analysis (reference value: 16.07%); assay type: functional
[14] = test system: PC-3; test: Induction of cell cycle arrest in human PC-3 cells assessed as increase in G2/M phase cell ratio at 10 uM incubated for 24 hrs by PI/RNase A staining based flow cytometric analysis (reference value: 16.07%); assay type: functional
[15] = test system: LNCaP; test: Induction of cell cycle arrest in human LNCaP cells assessed as accumulation of cells at G2/M phase at 5 micromol/L incubated for 48 hrs by PI/RNaseA staining based flow cytometric analysis; assay type: functional; conditions: dose 5.0 µmol/L
[16] = test system: PC-3; test: Induction of apoptosis in human PC-3 cells assessed as early apoptotic cells at 2.5 uM incubated for 72 hrs by Annexin V-FITC/PI staining based flow cytometric analysis (reference value: 3.01%); assay type: functional
[17] = test system: PC-3; test: Induction of apoptosis in human PC-3 cells assessed as late apoptotic cells at 2.5 uM incubated for 72 hrs by Annexin V-FITC/PI staining based flow cytometric analysis (reference value: 1.05%); assay type: functional
[18] = test system: PC-3; test: Induction of apoptosis in human PC-3 cells assessed as viable cells at 5 uM incubated for 72 hrs by Annexin V-FITC/PI staining based flow cytometric analysis (reference value: 90.93%); assay type: functional; conditions: read-out: Activity
[19] = test system: PC-3; test: Induction of apoptosis in human PC-3 cells assessed as early apoptotic cells at 10 uM incubated for 72 hrs by Annexin V-FITC/PI staining based flow cytometric analysis (reference value: 3.01%); assay type: functional
[20] = Tmax in ICR mouse at 5 mg/kg, iv measured at 0.083 to 24 hrs by LC-MS analysis; assay type: ADME, organism-based; conditions: in vivo, time 0.083-24 hrs
[21] = Cmax in ICR mouse at 5 mg/kg, iv measured at 0.083 to 24 hrs by LC-MS analysis; assay type: ADME, organism-based; design: time upper 24 hrs, time lower 0.083 hrs, dose 5 mg/kg, route iv; conditions: in vivo
[22] = AUC (0 to t) in ICR mouse at 5 mg/kg, iv measured at 0.083 to 24 hrs by LC-MS analysis; assay type: ADME, organism-based; design: time lower 0.083 hrs, dose 5 mg/kg, time upper 24 hrs, route iv; conditions: in vivo
[23] = MRT (0 to t) in ICR mouse at 5 mg/kg, iv measured at 0.083 to 24 hrs by LC-MS analysis; assay type: ADME, organism-based; conditions: in vivo, time 0.083-24 hrs
[24] = Apparent volume of distribution in ICR mouse at 5 mg/kg, iv measured at 0.083 to 24 hrs by LC-MS analysis; assay type: ADME, organism-based; conditions: in vivo, time 0.083-24 hrs
[25] = Acute toxicity in Kunming mouse assessed as effect on behavioral abnormalities at 2 g/Kg, IG measured after 2 weeks; conditions: in vivo, po, 2000 mg/kg, 336 h
[26] = Acute toxicity in Kunming mouse assessed as effect on heart at 2 g/Kg, IG measured after 2 weeks by H&E staining based analysis; assay type: tissue-based; conditions: in vivo, po, 2000 mg/kg, 336 h
[27] = Acute toxicity in Kunming mouse assessed as effect on liver at 2 g/Kg, IG measured after 2 weeks by H&E staining based analysis; assay type: tissue-based; conditions: in vivo, po, 2000 mg/kg, 336 h
[28] = test system: PC-3; test: Antitumor activity against human PC-3 cells xenografted in BALB/C nude mice assessed as decrease in tumor weight at 25 to 50 mg/kg, IG administered for 25 days; assay type: functional, organism-based; conditions: dose 25-50 mg/kg, time 25.0 day
[29] = Toxicity in BALB/C nude mouse xenografted with human PC-3 cells assessed as liver damage at 25 to 50 mg/kg, IG administered for 25 days by H&E staining based analysis; assay type: organism-based; conditions: in vivo, po, 600 h, dose 25-50 mg/kg, time 25 day
[30] = Toxicity in BALB/C nude mouse xenografted with human PC-3 cells assessed as spleen damage at 25 to 50 mg/kg, IG administered for 25 days by H&E staining based analysis; assay type: organism-based; conditions: in vivo, po, 600 h, dose 25-50 mg/kg, time 25 day
[31] = Toxicity in BALB/C nude mouse xenografted with human PC-3 cells assessed as reduction in prostate gland cells at 25 mg/kg, IG administered for 25 days by H&E staining based analysis; assay type: organism-based; conditions: in vivo, po, 600 h, time 25 day
[32] = test system: PC-3; test: Inhibition of PI3K/AKT pathway in human PC-3 cells assessed as decrease in P110alpha level at 10 uM by Western blot analysis; assay type: cell-based
[33] = test system: PC-3; test: Inhibition of PI3K/AKT pathway in human PC-3 cells assessed as decrease in P110alpha level at 20 uM by Western blot analysis relative to control; assay type: cell-based
[34] = test system: PC-3; test: Inhibition of PI3K/AKT pathway in human PC-3 cells assessed as decrease in P85 level at 2.5 to 5 uM by Western blot analysis; assay type: cell-based; conditions: dose 2.5-5 µM
[35] = test system: PC-3; test: Inhibition of PI3K/AKT pathway in human PC-3 cells assessed as decrease in P85 level at 10 to 20 uM by Western blot analysis; assay type: cell-based; conditions: dose 10-20 µM
[36] = test system: PC-3; test: Inhibition of PI3K/AKT pathway in human PC-3 cells assessed as decrease in AKT phosphorylation at Ser473 residue at 20 uM by Western blot analysis relative to control; assay type: cell-based
[37] = test system: PC-3; test: Inhibition of PI3K/AKT pathway in human PC-3 cells assessed as decrease in AKT phosphorylation at Thr308 residue at 20 uM by Western blot analysis relative to control; assay type: cell-based

T1 sequence (Q9UGL1 whole entry): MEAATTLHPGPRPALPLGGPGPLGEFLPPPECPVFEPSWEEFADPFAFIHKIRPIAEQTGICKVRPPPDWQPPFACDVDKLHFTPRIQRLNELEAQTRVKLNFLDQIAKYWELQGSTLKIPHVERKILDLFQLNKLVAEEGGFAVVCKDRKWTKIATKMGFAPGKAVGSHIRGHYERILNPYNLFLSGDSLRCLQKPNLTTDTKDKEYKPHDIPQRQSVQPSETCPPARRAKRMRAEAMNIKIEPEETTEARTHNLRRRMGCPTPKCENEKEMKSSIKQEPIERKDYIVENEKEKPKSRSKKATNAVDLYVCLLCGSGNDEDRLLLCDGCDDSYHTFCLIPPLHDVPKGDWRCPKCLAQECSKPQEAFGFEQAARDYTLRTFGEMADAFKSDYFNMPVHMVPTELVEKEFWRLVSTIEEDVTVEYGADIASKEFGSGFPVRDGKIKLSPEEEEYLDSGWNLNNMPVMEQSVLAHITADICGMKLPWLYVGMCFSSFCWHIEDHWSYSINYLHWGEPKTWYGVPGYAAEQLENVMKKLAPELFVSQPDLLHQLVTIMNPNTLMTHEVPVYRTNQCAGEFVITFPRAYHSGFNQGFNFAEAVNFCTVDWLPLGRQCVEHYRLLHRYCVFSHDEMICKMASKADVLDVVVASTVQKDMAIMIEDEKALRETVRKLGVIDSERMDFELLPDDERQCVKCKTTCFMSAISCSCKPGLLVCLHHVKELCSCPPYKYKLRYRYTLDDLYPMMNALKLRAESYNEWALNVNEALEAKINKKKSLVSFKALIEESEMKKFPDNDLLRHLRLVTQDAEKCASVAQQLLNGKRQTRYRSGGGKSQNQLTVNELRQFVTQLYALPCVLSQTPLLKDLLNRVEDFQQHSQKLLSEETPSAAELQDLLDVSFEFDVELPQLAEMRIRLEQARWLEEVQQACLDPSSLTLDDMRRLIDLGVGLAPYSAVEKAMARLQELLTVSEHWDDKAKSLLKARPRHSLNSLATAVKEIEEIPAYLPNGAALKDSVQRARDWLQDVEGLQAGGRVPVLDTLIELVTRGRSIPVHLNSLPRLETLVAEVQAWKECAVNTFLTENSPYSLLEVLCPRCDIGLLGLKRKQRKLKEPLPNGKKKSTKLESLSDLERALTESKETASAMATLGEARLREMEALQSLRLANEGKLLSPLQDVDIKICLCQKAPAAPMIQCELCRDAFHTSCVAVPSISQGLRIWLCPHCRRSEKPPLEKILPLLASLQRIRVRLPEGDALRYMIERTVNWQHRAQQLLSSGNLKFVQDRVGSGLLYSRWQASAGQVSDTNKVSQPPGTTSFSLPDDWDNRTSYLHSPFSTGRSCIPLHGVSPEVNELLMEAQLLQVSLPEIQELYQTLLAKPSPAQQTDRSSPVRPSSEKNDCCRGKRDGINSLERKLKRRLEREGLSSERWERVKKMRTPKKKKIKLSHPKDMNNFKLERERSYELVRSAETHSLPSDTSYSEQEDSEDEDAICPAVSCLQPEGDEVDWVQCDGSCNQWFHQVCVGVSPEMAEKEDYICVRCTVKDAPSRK

Compound: CN1CCN(CCNC(=O)c2cc(-c3ccc4ccccc4c3)nc3c2cnn3-c2ccccc2)CC1
- inhibition [1]: 102%
- IC50 [2]: 6.09 µM
- IC50 [3]: 4.34 µM
- IC50 [4]: 9.53 µM
- MRT last [5]: 6.9 h
- half-life [6]: 5.3 h
- inhibition [7]: Dose-Dependent Effect
- inhibition [8]: Dose-Dependent Effect
- inhibition [9]: Dose-Dependent Effect
- inhibition [10]: Dose-Dependent Effect
- inhibition [11]: Tde
- inhibition [12]: Dose-Dependent Effect
- Activity [13]: 27.47%
- Activity [14]: 75.33%
- Activity [15]: inactive
- Activity [16]: 0.7%
- Activity [17]: 5.94%
- viability at 5 µM [18]: 73%
- Activity [19]: 0.81%
- Tmax [20]: 4.98 min
- Cmax [21]: 551.67 ng/mL
- AUCt [22]: 44437.67 ng·h/mL
- MRT(t) [23]: 10.29 h
- Vz [24]: 19.51 L/kg
- Activity [25]: Non-Toxic
- Activity [26]: Non-Toxic
- Activity [27]: Non-Toxic
- Activity [28]: Active
- Activity [29]: Non-Toxic
- Activity [30]: Non-Toxic
- Activity [31]: Non-Toxic
- inhibition [32]: Active
- inhibition [33]: 80%
- inhibition [34]: inactive
- inhibition [35]: Active
- inhibition [36]: 40%
- inhibition [37]: 60%
